Laboratory results from ChEMBL document CHEMBL4330081, “Rational design of 5-((1H-imidazol-1-yl)methyl)quinolin-8-ol derivatives as novel bromodomain-containing protein 4 inhibitors” (Eur J Med Chem, 2019).
Active and inactive are the calls of the source. The rule behind the calls is not given here.

Columns and labels:
[1] = molecular target: T1, Bromodomain-containing protein 4 (Homo sapiens, UniProt O60885); assay: Inhibition of BRD4 BD1 (unknown origin) at 10 uM using biotin labelled NeC: SGRG-K(Ac)-GG-K(Ac)-GLG-K(Ac)-GGA-K(Ac)-RHRKVGG-K as substrate preincubated for 15 mins followed by substrate addition measured after 30 mins by alpha screen assay relative to control
[2] = molecular target: T1, Bromodomain-containing protein 4; assay: Inhibition of BRD4 BD1 (unknown origin) using biotin labelled NeC: SGRG-K(Ac)-GG-K(Ac)-GLG-K(Ac)-GGA-K(Ac)-RHRKVGG-K as substrate preincubated for 15 mins followed by substrate addition measured after 30 mins by alpha screen assay
MV4-11 = assay: Antiproliferative activity against human MV4-11 cells after 72 hrs by CellTiter Glo luminescent assay; type: functional, cell-based; conditions: MV4-11, 72 h
[3] = molecular target: T1, Bromodomain-containing protein 4
Description: Stabilization of BRD4 BD1 (unknown origin) assessed as change in melting temperature at protein to test compound molar ratio of 1:40 by SYPRO Orange dye based fluorescence analysis

[4] = molecular target: T1, Bromodomain-containing protein 4; assay: Inhibition of BRD4 BD1 (unknown origin) at 50 uM using biotin labelled NeC: SGRG-K(Ac)-GG-K(Ac)-GLG-K(Ac)-GGA-K(Ac)-RHRKVGG-K as substrate preincubated for 15 mins followed by substrate addition measured after 30 mins by alpha screen assay relative to control
[5] = Half life in human hepatocytes at 1 uM up to 120 mins by LC/MS analysis; type: ADME, cell-based, Hepatocyte
MM1.S = assay: Antiproliferative activity against human MM1S cells after 72 hrs by CellTiter Glo luminescent assay; type: functional, cell-based
[6] = molecular target: T1, Bromodomain-containing protein 4; assay: Inhibition of BRD4 in human MV4-11 cells assessed as down regulation of c-myc at 3.125 to 50 uM after 6 hrs by Western blot analysis; type: cell-based
[7] = molecular target: T1, Bromodomain-containing protein 4; assay: Inhibition of BRD4 in human MDA-MB-231 cells assessed as down regulation of c-myc at 3.125 to 50 uM after 6 hrs by Western blot analysis; type: cell-based
MDA-MB-231 = assay: Antiproliferative activity against human MDA-MB-231 cells after 72 hrs by CellTiter Glo luminescent assay; type: functional, cell-based; conditions: MDA-MB-231, 72 h
[8] = molecular target: T1, Bromodomain-containing protein 4; assay: Inhibition of BRD4 in human MV4-11 cells assessed as down regulation of c-myc after 6 hrs by Western blot analysis; type: cell-based
[9] = molecular target: T1, Bromodomain-containing protein 4; assay: Inhibition of BRD4 in human MM1S cells assessed as down regulation of c-myc after 6 hrs by Western blot analysis; type: cell-based
hERG (KCNH2) = hERG (KCNH2) (Homo sapiens, UniProt Q12809); assay: in vitro; conditions: CHO cells expressing human ERG
Chain of hERG (KCNH2) (Q12809 whole entry, the tested form may be a part): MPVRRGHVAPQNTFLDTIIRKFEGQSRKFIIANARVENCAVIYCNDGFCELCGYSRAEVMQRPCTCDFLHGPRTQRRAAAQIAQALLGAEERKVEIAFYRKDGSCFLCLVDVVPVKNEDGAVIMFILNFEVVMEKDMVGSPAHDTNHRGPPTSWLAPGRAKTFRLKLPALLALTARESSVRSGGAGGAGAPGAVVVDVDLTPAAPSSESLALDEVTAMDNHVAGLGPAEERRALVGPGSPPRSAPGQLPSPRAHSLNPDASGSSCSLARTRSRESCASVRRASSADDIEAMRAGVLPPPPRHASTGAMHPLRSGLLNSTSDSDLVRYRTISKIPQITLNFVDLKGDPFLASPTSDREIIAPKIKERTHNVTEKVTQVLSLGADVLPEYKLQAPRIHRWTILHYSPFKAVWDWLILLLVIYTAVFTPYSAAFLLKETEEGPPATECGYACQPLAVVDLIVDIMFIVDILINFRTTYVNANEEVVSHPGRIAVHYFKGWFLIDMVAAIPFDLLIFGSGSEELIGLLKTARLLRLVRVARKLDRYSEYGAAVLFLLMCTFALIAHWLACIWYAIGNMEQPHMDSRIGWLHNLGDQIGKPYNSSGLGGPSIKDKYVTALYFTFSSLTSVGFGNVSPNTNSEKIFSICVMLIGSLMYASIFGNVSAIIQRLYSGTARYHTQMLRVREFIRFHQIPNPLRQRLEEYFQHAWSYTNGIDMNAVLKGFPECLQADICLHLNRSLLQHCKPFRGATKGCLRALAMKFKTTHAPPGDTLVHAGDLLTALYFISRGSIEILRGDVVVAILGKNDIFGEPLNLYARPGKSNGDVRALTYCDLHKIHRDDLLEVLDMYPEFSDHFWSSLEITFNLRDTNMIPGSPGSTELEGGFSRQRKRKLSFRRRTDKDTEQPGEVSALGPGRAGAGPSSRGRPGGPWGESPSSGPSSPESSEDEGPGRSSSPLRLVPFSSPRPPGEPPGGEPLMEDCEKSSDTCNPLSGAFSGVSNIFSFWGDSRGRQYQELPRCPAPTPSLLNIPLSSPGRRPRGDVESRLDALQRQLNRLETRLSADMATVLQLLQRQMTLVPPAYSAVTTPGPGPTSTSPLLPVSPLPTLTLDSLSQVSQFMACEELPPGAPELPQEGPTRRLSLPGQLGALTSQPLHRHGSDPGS
Description: Inhibition of human ERG expressed in CHO cells at 40 uM at -80 mV holding potential after 2.5 mins by Qpatch clamp assay relative to control

[10] = molecular target: T1, Bromodomain-containing protein 4; assay: Inhibition of recombinant full length human N-terminal His6-tagged BRD4 (2 to 1362 residues) expressed in baculovirus infected insect cells using histone H4 peptide as substrate by alpha screen assay

SMILES: Cc1cc(C)n(-c2ccc3c(Cl)cc(Cl)c(O)c3n2)n1
- inhibition [1]: -0%

SMILES: Nc1ccc2c(Cn3ccnc3)ccc(O)c2n1
- IC50 [2]: 292 nM
- IC50 (MV4-11): 20400 nM
- ΔTm [3]: 3.8 °C

SMILES: Cc1ccc2c(Cn3ccnc3)ccc(O)c2n1
- inhibition [1]: 41%

SMILES: O=C1CN(Cc2ccc(O)c3ncccc23)Cc2ncccc2N1
- IC50 [2]: 92 nM
- IC50 (MV4-11): 9600 nM
- ΔTm [3]: 4.3 °C

SMILES: O=C(C[n+]1cccc2cccc(O)c21)c1ccc(F)cc1
- inhibition [4]: -0%

SMILES: Oc1cccc2ccc(N3CCCCC3)nc12
- inhibition [1]: -0%

SMILES: O=S(=O)(O)c1ccc2cccc(O)c2n1
- inhibition [4]: 47.4%

SMILES: O=[N+]([O-])c1ccc2c(c1)ncn2Cc1ccc(O)c2ncccc12
- half-life at 1 µM [5]: 27 min
- IC50 (MM1.S): 10900 nM
- IC50 [2]: 107 nM
- inhibition [6]: Active
- IC50 (MV4-11): 1000 nM
- inhibition [7]: inactive
- ΔTm [3]: 4 °C
- IC50 (MDA-MB-231): 1100 nM

SMILES: O=[N+]([O-])c1cc([N+](=O)[O-])c2cccnc2c1O
- inhibition [1]: 27%

SMILES: CC(C)(C)OC(=O)Oc1ccc(Cn2c(-c3cscn3)nc3ccccc32)c2cccnc12
- inhibition [1]: 11%

SMILES: Oc1ccc(CSc2nc3ccccc3s2)c2cccnc12
- inhibition [1]: 18%

SMILES: CC(C)(C)OC(=O)Oc1ccc(Cn2ccnc2)c2cccnc12
- IC50 (MM1.S): 1800 nM
- IC50 [2]: 176 nM
- IC50 (MV4-11): 11500 nM
- ΔTm [3]: 4.5 °C
- IC50 (MDA-MB-231): 31500 nM

SMILES: Oc1cccc2ccc(/C=C/c3cccc(OCc4ccccc4Cl)c3)nc12
- inhibition [4]: -0%

SMILES: COc1ccc(C)cc1/N=N/c1ccc(O)c2nc(C=O)ccc12
- inhibition [1]: 20%

SMILES: CCOC(=O)C1CCCN(Cc2ccc(O)c3ncccc23)C1 (stereo unspecified)
- inhibition [4]: 97.8%
- IC50 [2]: 738 nM

SMILES: Cn1c(/N=N/c2ccc(O)c3ncccc23)nc2ccccc21
- inhibition [1]: 100%
- IC50 [2]: 370 nM

SMILES: CC(C)(CCl)C(=O)Oc1ccc(Cn2ccnc2)c2cccnc12
- IC50 (MM1.S): 3600 nM
- IC50 [2]: 54 nM
- IC50 (MV4-11): 8900 nM
- ΔTm [3]: 2.4 °C
- IC50 (MDA-MB-231): 12400 nM

SMILES: CC(=O)Oc1ccc(Cn2ccnc2)c2cccnc12
- IC50 [2]: 61 nM
- IC50 (MV4-11): 28500 nM
- ΔTm [3]: 4.3 °C

SMILES: COc1ccc(C)cc1/N=N/c1ccc(O)c2nc(/C=N/O)ccc12
- inhibition [1]: 24%

SMILES: C=CC[n+]1cccc2cccc(O)c21
- inhibition [4]: -0%

SMILES: Cc1cc(C)c2ccc(NN)nc2c1O
- inhibition [4]: 88%
- IC50 [2]: 18000 nM

SMILES: Nc1ccc(-c2nc3ccc(-c4nc5ccc(N)cc5[nH]4)cc3[nH]2)cc1
- inhibition [1]: -0%

SMILES: O=C1c2ccccc2C(=O)N1CCCOc1ccc(Cn2ccnc2)c2cccnc12
- inhibition [1]: 21%

SMILES: Oc1c(Br)cc(/C=C/c2ccc3cccc(O)c3n2)cc1Br
- inhibition [4]: -0%

SMILES: Oc1ccc(CNc2cccc(C(F)(F)F)c2)c2cccnc12
- inhibition [1]: 84%
- IC50 [2]: 4800 nM

SMILES: Oc1ccc(Cn2cnc(F)c2)c2cccnc12
- half-life at 1 µM [5]: 23 min
- IC50 (MM1.S): 1200 nM
- inhibition [8]: Dose-dependent effect
- inhibition [9]: Dose-dependent effect
- IC50 [2]: 70 nM
- inhibition at 2.5 min, 40 µM (hERG (KCNH2)): 10%
- IC50 (MV4-11): 2200 nM
- ΔTm [3]: 4.6 °C
- IC50 (MDA-MB-231): 34300 nM

SMILES: O=S(=O)(Nc1ccc(O)c2ncccc12)c1ccc(Cl)cc1
- inhibition [1]: -0%

SMILES: CC1=NN(c2ccc3cccc(O)c3n2)C(=O)C1
- inhibition [1]: 99%
- IC50 [2]: 1000 nM

SMILES: Oc1ccc(CN2CCn3c(nnc3C(F)(F)F)C2)c2cccnc12
- IC50 [2]: 68 nM
- IC50 (MV4-11): 22400 nM
- ΔTm [3]: 4.9 °C

SMILES: CCOc1c(Br)cc(Br)cc1/C=C/c1ccc2cccc(O)c2n1
- inhibition [4]: -0%

SMILES: Oc1ccc(COn2nnc3ccccc32)c2cccnc12
- IC50 [2]: 82 nM
- IC50 (MV4-11): 12700 nM
- ΔTm [3]: 4.4 °C

SMILES: Cc1nnn(C)c1-c1cnc2c3ccc(C(C)(C)O)cc3n(C(c3ccccc3)C3CCOCC3)c2c1 (stereo unspecified)
- IC50 [10]: < 5 nM

SMILES: COC(=O)C(O)(c1cc(C)c2cccnc2c1O)C(F)(F)F (stereo unspecified)
- inhibition [4]: 97%

SMILES: Oc1ccc(CNc2ccc(C(F)(F)F)cc2)c2cccnc12
- IC50 [2]: 4800 nM

SMILES: Oc1ccc(CN2CCCCCC2)c2cccnc12
- inhibition [4]: 46 to 99%
- IC50 [2]: 670 nM

SMILES: O=C(Cc1ccccc1)N/N=C/c1ccc(O)c2ncccc12
- inhibition [1]: 82%
- IC50 [2]: 4700 nM
